Experimental data published in patent publication US11167007B2, “FOXM1 modulators and uses thereof” (City of Hope, priority 2016, dated 2021).

Biological target: T1, FOXM1 (Rattus norvegicus, UniProt P97691)
T1 construct: from tissue; host or cells: Sprague Dawley rat spinal cord
T1 sequence (P97691 1-759): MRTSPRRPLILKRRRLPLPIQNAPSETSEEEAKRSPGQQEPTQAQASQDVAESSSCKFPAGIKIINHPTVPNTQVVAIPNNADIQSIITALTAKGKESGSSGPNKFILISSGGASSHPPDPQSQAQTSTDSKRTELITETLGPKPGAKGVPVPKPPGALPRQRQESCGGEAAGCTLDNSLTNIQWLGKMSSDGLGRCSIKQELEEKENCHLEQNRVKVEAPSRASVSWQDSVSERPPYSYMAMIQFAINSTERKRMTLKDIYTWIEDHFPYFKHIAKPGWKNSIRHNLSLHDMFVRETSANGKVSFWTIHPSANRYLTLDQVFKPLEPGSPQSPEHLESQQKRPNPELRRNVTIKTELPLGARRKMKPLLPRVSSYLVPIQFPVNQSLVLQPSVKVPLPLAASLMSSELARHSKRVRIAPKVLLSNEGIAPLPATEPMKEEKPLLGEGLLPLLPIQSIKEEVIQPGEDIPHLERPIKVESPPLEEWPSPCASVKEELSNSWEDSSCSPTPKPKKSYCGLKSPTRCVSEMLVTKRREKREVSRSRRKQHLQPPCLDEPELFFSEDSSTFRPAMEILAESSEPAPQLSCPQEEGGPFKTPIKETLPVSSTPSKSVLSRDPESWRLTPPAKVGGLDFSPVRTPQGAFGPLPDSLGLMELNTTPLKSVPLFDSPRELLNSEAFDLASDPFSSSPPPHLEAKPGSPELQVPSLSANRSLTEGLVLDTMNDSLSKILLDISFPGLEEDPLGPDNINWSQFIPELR
Experiment: RT-qPCR of FOXM1 target gene transcripts in spinal cord
Assay type: in vivo
Details: rats, compared to intact controls, FIG. 5G
Method: Animals and Drugs. This study was carried out in strict accordance with the recommendations in the Guide for the Care and Use of Laboratory Animals of the National Institutes of Health. All experiments were performed under the IUCAC approval of City of Hope. Animals were purchased from Jackson Laboratory (Bar Harbor, Main). For the pilot pharmacokinetic experiment, nine male Sprague Dawley rats (n=3) were administered 1, 10, or 100 mg/kg intraperitoneal injections thrice per week for four weeks. One hour following the final dose, blood and spinal fluid were collected and analyzed by mass spectrometry. For the efficacy experiment, rats were divided into 3 groups (n=7) as follows: intact, castrated, and thiostrepton. […] Following a treatment period of 7 days, rats were euthanized and organs harvested, weighed and processed for quantitative RT-PCR.
qRT-PCR. The quantitative RT-PCR method has been described by Jones et al, ACS Chem Biol, 3(7):412-8 (2008). […] Differences between experimental (x) and control (y) samples were normalized to RPL19 transcript levels (androgen unresponsive) and determined with the following calculation: (2^(Ctsgene1-Ctygene1))/(2^(CtxRPL19-CtyRPL19)) One-way analysis of variance was applied to determine statistical significant among groups, where p<0.05 was considered significant. […]

With `C=C(NC(=O)C(=C)NC(=O)c1csc(C2=N[C@@H]3c4csc(n4)[C@H]4NC(=O)c5csc(n5)[C@H]([C@](C)(O)[C@@H](C)O)NC(=O)[C@H]5CSC(=N5)/C(=C/C)NC(=O)[C@H]([C@@H](C)O)NC(=O)c5csc(n5)[C@]3(CC2)NC(=O)[C@H](C)NC(=O)C(=C)NC(=O)[C@H](C)NC(=O)[C@H]([C@@H](C)CC)N[C@@H]2C=Cc3c([C@H](C)O)cc(nc3[C@H]2O)C(=O)O[C@@H]4C)n1)C(N)=O` [thiostrepton] as the compound, how does the “transcript levels of FOXM1 target genes Ccndl and Sox2” value read?
The value was “decreased”.
